According to article PMC12951562, “SH2scan: Mapping SH2 Domain-Ligand Binding Selectivity for Inhibitors and Degraders” (Journal of Medicinal Chemistry, 2026):

Tests used:
Assay in all cases: biochemical
Format in all cases: binding
Settings in all cases: primary screen, 10 μM; read-out: percent of DMSO vehicle control
[1] = molecular target: T1, BLK (Homo sapiens, UniProt P51451)
T1 construct: the DNA-tagged SH2 domain concentrations used in this study were <0.1 nM; made in house; host or cells: HEK293 (transient transfection; unpurified extract)
T1 sequence (P51451 124-220 limits assumed): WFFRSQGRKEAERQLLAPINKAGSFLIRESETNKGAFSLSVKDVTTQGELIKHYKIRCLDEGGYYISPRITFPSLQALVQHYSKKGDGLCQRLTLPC

[2] = molecular target: T2, CRKL (Homo sapiens, UniProt P46109)
T2 construct: the DNA-tagged SH2 domain concentrations used in this study were <0.1 nM; made in house; host or cells: HEK293 (transient transfection; unpurified extract)
T2 sequence (P46109 14-102 limits assumed): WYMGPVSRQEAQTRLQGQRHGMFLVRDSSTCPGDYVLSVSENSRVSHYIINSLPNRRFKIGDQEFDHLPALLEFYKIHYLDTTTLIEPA

[3] = molecular target: T3, SOCS6 (Homo sapiens, UniProt O14544)
T3 construct: made in house; host or cells: HEK293 (transient transfection), unpurified extract
T3 sequence (O14544 1-535): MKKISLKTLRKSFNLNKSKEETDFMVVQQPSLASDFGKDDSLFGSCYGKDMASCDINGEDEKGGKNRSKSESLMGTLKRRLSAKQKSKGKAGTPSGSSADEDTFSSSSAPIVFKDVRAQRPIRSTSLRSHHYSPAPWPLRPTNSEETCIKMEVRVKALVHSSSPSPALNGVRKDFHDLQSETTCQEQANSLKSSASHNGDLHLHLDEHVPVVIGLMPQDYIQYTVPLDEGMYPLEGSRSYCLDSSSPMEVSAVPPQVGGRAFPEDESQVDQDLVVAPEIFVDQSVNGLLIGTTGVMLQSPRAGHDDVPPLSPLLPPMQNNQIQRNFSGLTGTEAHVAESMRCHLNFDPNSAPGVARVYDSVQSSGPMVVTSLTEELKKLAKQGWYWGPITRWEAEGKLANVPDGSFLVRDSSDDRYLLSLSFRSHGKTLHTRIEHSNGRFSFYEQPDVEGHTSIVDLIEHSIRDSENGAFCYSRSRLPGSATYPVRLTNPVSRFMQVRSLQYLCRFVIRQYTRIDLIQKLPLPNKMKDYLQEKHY

[4] = molecular target: T4, PIK3R3(SH2dom.N-term.) (Homo sapiens, UniProt Q92569)
T4 construct: SH2dom.N-term. denotes SH2 domain closest to N-terminus of protein; made in house; host or cells: HEK293 (transient transfection, unpurified extract)

[5] = molecular target: T5, RASA1(SH2dom.C-term.) (Homo sapiens, UniProt P20936)
T5 construct: SH2dom.C-term. denotes SH2 domain closest to C-terminus of protein; made in house; host or cells: HEK293 (transient transfection, unpurified extract)
T5 sequence (P20936 351-441 limits assumed): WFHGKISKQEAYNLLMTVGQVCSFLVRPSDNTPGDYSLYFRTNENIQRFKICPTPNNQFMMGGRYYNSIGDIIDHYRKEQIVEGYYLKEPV

[6] = molecular target: T6, SOCS7 (Homo sapiens, UniProt O14512)
T6 construct: made in house; host or cells: HEK293 (transient transfection), unpurified extract
T6 sequence (O14512 1-581): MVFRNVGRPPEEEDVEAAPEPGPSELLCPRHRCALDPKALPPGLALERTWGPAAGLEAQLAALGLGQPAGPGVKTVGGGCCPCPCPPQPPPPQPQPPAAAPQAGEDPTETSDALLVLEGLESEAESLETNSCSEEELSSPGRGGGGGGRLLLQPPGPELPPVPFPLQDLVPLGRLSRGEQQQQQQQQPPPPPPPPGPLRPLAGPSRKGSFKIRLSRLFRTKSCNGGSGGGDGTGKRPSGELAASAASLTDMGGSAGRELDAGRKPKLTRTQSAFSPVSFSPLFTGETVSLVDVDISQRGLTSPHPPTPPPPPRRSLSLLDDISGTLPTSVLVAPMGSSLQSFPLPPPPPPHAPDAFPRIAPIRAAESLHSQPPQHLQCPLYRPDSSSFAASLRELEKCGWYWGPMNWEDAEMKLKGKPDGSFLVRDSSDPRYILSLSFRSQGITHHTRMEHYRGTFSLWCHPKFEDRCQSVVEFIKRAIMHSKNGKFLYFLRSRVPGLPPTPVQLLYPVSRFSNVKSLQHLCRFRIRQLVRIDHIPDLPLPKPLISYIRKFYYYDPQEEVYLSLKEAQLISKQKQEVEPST

[7] = molecular target: T7, PIK3R1(SH2dom.C-term.) (Homo sapiens, UniProt P27986)
T7 construct: SH2dom.C-term. denotes SH2 domain closest to C-terminus of protein; made in house; host or cells: HEK293 (transient transfection, unpurified extract)
T7 sequence (P27986 624-718 limits assumed): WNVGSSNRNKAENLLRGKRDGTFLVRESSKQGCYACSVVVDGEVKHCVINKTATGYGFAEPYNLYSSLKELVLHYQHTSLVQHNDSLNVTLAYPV

[8] = molecular target: T8, ABL2 (Homo sapiens, UniProt P42684)
T8 construct: the DNA-tagged SH2 domain concentrations used in this study were <0.1 nM; made in house; host or cells: HEK293 (transient transfection; unpurified extract)
T8 sequence (P42684 173-263 limits assumed): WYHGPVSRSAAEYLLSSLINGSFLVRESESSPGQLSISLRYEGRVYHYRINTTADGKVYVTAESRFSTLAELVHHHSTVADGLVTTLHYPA

[9] = molecular target: T9, SOCS2 (Homo sapiens, UniProt O14508)
T9 construct: made in house; host or cells: HEK293 (transient transfection), unpurified extract
T9 sequence (O14508 1-198): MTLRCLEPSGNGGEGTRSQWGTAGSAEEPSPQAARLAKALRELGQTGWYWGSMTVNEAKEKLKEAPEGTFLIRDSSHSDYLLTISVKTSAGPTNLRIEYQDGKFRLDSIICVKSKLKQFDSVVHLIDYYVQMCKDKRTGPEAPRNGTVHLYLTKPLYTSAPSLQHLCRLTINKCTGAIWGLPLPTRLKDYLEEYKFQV

[10] = molecular target: T10, GRB14 (Homo sapiens, UniProt Q14449)
T10 construct: the DNA-tagged SH2 domain concentrations used in this study were <0.1 nM; made in house; host or cells: HEK293 (transient transfection; unpurified extract)
T10 sequence (Q14449 439-535 limits assumed): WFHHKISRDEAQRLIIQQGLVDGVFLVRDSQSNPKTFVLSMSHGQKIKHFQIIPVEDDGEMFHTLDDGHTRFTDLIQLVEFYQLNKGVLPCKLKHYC

[11] = molecular target: T11, STAP1 (Homo sapiens, UniProt Q9ULZ2)
T11 construct: made in house; host or cells: HEK293 (transient transfection), unpurified extract
T11 sequence (Q9ULZ2 1-295): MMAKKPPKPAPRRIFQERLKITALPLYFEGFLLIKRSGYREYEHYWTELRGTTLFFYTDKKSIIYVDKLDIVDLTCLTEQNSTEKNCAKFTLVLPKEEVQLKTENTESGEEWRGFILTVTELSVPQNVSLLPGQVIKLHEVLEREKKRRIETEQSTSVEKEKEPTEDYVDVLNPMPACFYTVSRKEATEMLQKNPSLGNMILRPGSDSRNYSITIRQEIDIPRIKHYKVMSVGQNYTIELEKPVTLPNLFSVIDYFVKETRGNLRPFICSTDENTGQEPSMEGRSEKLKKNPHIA

[12] = molecular target: T12, MIST (Homo sapiens, UniProt Q7Z7G1)
T12 construct: the DNA-tagged SH2 domain concentrations used in this study were <0.1 nM; made in house; host or cells: HEK293 (transient transfection, unpurified extract)
T12 sequence (Q7Z7G1 309-419 limits assumed): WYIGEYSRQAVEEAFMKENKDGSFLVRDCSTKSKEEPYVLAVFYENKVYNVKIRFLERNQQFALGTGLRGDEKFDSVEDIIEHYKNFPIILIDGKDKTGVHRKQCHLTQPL

O=C(COc1ccc2cc(C(=O)Nc3ccccc3)ccc2c1)NCc1ccc(OP(=O)(O)O)c(OP(=O)(O)O)c1 [Stafib-1]
remaining activity at 10 µM [1]: 91.8 ± 35.5%
remaining activity at 10 µM [2]: 120%
remaining activity at 10 µM [3]: 96.9 ± 12%
remaining activity at 10 µM [4]: 105%
remaining activity at 10 µM [5]: 97 ± 11.7%
remaining activity at 10 µM [6]: 81 ± 17.8%
remaining activity at 10 µM [7]: 85.3 ± 16.8%
remaining activity at 10 µM [8]: 106%
remaining activity at 10 µM [9]: 47.9 ± 29%
remaining activity at 10 µM [10]: 55.1 ± 11.6%
remaining activity at 10 µM [11]: 92 ± 6.8%
remaining activity at 10 µM [12]: 96.8 ± 9.3%
